Experimental data published in ChEMBL document CHEMBL5608198 (Eur J Med Chem, 2024).
Activity calls are given as the source filed them. No cut-off for these calls is given here.

System: PBMC
Experiment: Effect on cell proliferation of human PBMC into human Vgamma9Vdelta2 T cells assessed as decrease in HMBPP response upto 100 uM incubated for 3 days followed by compound washout with recurrent addition of IL-2 on every 3 days measured after 11 days in presence of HMBPP by flow cytometry
Format: functional, cell-based
Conditions: time 3.0 day

| SMILES | Activity |
| --- | --- |
| O=P(O)(O)OP(=O)(O)OC/C=C(/CO)Cc1ccccc1 | Active |
| O=P(O)(O)OP(=O)(O)OC/C=C(/CO)Cc1ccc(Br)cc1 | Active |
| Cc1ccc(C/C(=C\COP(=O)(O)OP(=O)(O)O)CO)cc1 | Active |
